Assays:
Format in all cases: cell-based
[1] = tested on: stress granule formation in HeLa cells stably expressing G3BP1-GFP; test: Preincubation, arsenite-induced stress granule formation, live cell imaging in HeLa; details: Homo sapiens, 20 min pretreatment, 250 μM NaAsO2, read-out: inhibition of stress granule formation compared with inactive enantiomer
Procedure: (§1) For preincubation of compounds, U2OS or HeLa cells stably expressing G3BP1-GFP or CRISPR-modified cells expressing TDP-43-GFP/G3BP1-GFP were seeded into eight-well Lab-Tek chambered cover glass (Nunc). At least 20 min prior to the experiment, 1 ml FluoroBrite DMEM media (Gibco) supplemented with 10% FBS and 4 mM L-glutamine was combined with 0.1% DMSO or G3I compound (5, 10, or 50 μM). This solution was vortexed for 5 s, added to the cells at 250 μl per well, and left to incubate on the microscope for 20 min. Conditions were maintained at 37°C and 5% CO2 using a Bold Line Cage Incubator (Okolab) and an objective heater (Bioptechs). During this incubation time, 5 xy fields were stored per condition, with each field having ∼20–30 cells within it. After the 20-min incubation, 250 μl of 500 μM or 1 mM (2×) sodium arsenite (Sigma-Aldrich) diluted in the FluoroBrite media with an appropriate amount of G3I compound or DMSO was added to the sample. Imaging began immediately after, with images at each xy field being taken every 1 min. For heat shock experiments, U2OS G3BP1-GFP-expressing cells were seeded into a 35-mm glass bottom dish (MatTek). Prior to the experiment, 1.5 ml FluoroBrite DMEM media (Gibco) supplemented with 10% FBS and 4 mM L-glutamine was combined with 0.1% DMSO or 50 μM G3I compound. The sample was incubated on the environmentally controlled microscope for 20 min. […]

[2] = tested on: eIF3η and PABPC1 puncta in U2OS cells; test: Immunofluorescence of additional stress granule markers after preincubation; details: 50 μM pretreatment, 250 μM NaAsO2 for 30 min
Procedure: U2OS cells or U2OS cells stably expressing G3BP1-GFP were seeded in four-well Lab-Tek II Chambered Coverglass (1055360; Thermo Fisher Scientific). For preincubation experiments, cells were treated with 50 μM G3I compound for 20 min or 24 h, followed by 250 μM NaAsO2 and 50 μM G3I compound for 30 min. For posttreatment, cells were treated with 250 μM NaAsO2 for 30 min, followed by treatment with 250 μM NaAsO2 and 50 μM G3I compound for 5 min. Cells were then washed twice with PBS and fixed with 4% PFA in PBS for 10 min. Cells were then washed three times with PBS (5 min between each wash), permeabilized with 0.5% Triton X-100 in PBS for 10 min, and washed twice with PBS. Next, cells were blocked for 1 h with 3% BSA in PBS at room temperature, followed by incubation with primary antibodies diluted in 3% BSA overnight at 4°C. Cells were then washed three times with PBS (5 min between each wash) and incubated with secondary antibodies and Hoechst diluted in 3% BSA at room temperature for 1 h. Cells were then washed three times with PBS (5 min between each wash) and imaged. […]

[3] = tested on: U2OS cells; test: Cytotoxicity assay (CellTiter-Glo, ATP levels); details: 24 h, ATP levels by luciferase signal
Procedure: U2OS (HTB-96), HEK293T (CRL-3216), and HeLa (CCL-2) cells were originally purchased from ATCC and periodically authenticated by short tandem repeat (STR) profiling. Cells were grown in Dulbecco’s modified Eagle’s medium (DMEM) supplemented with 10% fetal bovine serum (FBS), 1% penicillin/streptomycin, and 1% L-glutamine. Cells were counted using ADAM-CellT (NanoEntek), plated, and transfected using either Lipofectamine 3000 (L3000008; Thermo Fisher Scientific) or Viafect (E4981; Promega) for transient overexpression according to the manufacturer’s instructions. Cytotoxicity was assayed using CellTiter-Glo 2.0 reagent (Promega) according to the manufacturer’s instructions.

[4] = tested on: TDP-43 localization to stress granules in CRISPR-modified U2OS cells; test: Live imaging of GFP-TDP-43 and mRuby3-G3BP1 in CRISPR-modified U2OS cells; details: 50 μM pretreatment, 250 μM NaAsO2 for 30 min
Procedure: as §1

`COCCC(NC(=O)C(C)NC(=O)C(NC(=O)C(NC(=O)C(F)CC(C)(C)C)C(C)(C)O)C(C)c1ccccc1)C(=O)N(C)Cc1ccccc1` (centres unmarked) [G3Ia] was tested, and the inhibition at 50 µM [1] was roughly 72%, the “eIF3η and PABPC1 puncta” value [2] was “reduced eIF3η and PABPC1 puncta” and the cell-based toxicity [3] was “do not appear to induce cellular toxicity or growth phenotypes”.
In the case of `CC(NC(=O)C(NC(=O)C(NC(=O)CCC(C)(C)C)C(C)(C)O)C(C)c1ccccc1)C(=O)N1CCCC1c1ccccc1` (centres unmarked) [G3Ib], the inhibition at 50 µM [1] is reported as roughly 82%, the “eIF3η and PABPC1 puncta” value [2] is reported as “reduced eIF3η and PABPC1 puncta” and the “TDP-43 localization to stress granules” value [4] is reported as “not”. The cell-based toxicity [3] was “do not appear to induce cellular toxicity or growth phenotypes”.
In the case of `CC(NC(=O)C(NC(=O)C(NC(=O)CCC(C)(C)C)C(C)(C)O)C(C)c1ccccc1)C(=O)N1CCCC1c1ccccc1` (centres unmarked) [G3Ib′], the “TDP-43 localization to stress granules” value [4] is reported as “a small proportion of TDP-43 localized to stress granules”.

— PMC10824102, “Identification of small molecule inhibitors of G3BP-driven stress granule formation” (The Journal of Cell Biology, 2024)
